Results on 2 compounds are retold here after patent US20240043860A1, “NOVEL HYDROXYPHENYLPYRUVATE DIOXYGENASE POLYPEPTIDES AND METHODS OF USE THEREOF” (Syngenta Crop Protection AG, priority 2020, published 2024).

Where two headings read alike, the source gives them in different places.

Test [1] concerns the target HPPD variant AVESA V307 (SEQ ID NO: 35) (Avena sativa, UniProt A0ACD5V6K6, A327R/I340E/L359M/P271N/R214G/V218I/V260A). Briefly: biochemical. Format: biochemical. On the procedure: 25 ul of the overnight cultures were inoculated into fresh 96-deepwell block containing 1 ml Formedium Autoinduction Media (AIM). The AIM cultures were grown for 3h at 37° C. (900rpm) and then transferred to 20° C. overnight (900rpm) to allow protein expression. The overnight cultures were centrifuged and 500 ul of Cellytic B (Sigma Aldrich) was added to resuspend the cell pellets. The coupled HGO assay (Siehl et al, 2014) is used to generate IC50 values for the HPPD variants of interest.
E. coli BL21 (DE3) cells were transformed with a pET24a vector containing a C-terminally his-tagged Arabidopsis HGO gene, grown and induced overnight as described for the HPPD variants above. The cell pellet was resuspended in phosphate buffered saline at pH 7.4 containing 10% Glycerol, 1mm Tris[2-carboxyethyl] phosphine-HCl (TCEP) plus 30 mM Imidazole and lysed using lysozyme/benzonase. The extract was clarified by low speed centrifugation and purified in the same buffer down a 1 ml His Gravitrap column. The bound HGO was eluted in 0.25M imidazole and the fractions pooled and beaded into liquid nitrogen. All procedures apart from the centrifugation and beading steps were carried out under a nitrogen atmosphere.
The coupled HGO assay is carried out by adding 10 ul of HPPD extract to a 96-well plate and then adding 40 ul of reaction buffer (50 mM Bis Tris Propane, pH7.0, 25 mM sodium-L-ascorbate, 400μM mercaptoethanol, 50 μM Fe(II)SO4). The plates are left to incubate for 5 minutes on ice. […] 200 ul of HPP/HGO (197 μM hydroxyphenylpyruvic acid, 16 μl/ml Homogentisic Acid Oxidase in reaction buffer as described above) buffer is then added to the well and the reaction is regularly monitored (e.g. every 30 seconds-5 minutes) for absorbance at 330 nm for a given time period (e.g., for between 15-60 minutes). The data can then be used to calculate the IC50 value for each HPPD variant of interest.

In test [2] the test system is transgenic tobacco plants expressing mutant HPPD SEQ ID NO: 14. Briefly: spray test, herbicidal damage scoring. Format: in vivo. On the procedure: (§1) Avena sativa HPPD or orthologues and variants thereof, for example SEQ IDs 1-63 and 122-127, were expressed in transgenic tobacco. DNA sequences that encode these polypeptides (optimized for tobacco or, optionally, codon optimized according to a target crop such as soybean) were prepared synthetically. Each sequence was designed to include a 5′ fusion with TMV omega 5′ leader sequence such that they are flanked at the 5′ end with XhoI and at the 3′ end with KpnI to facilitate direct cloning into a suitable binary vector for Agrobacterium-based plant transformation.
(§2) In one example, the TMV omega 5′ leader and a HPPD encoding gene of interest is excised using XhoI/KpnI and cloned into similarly digested binary vector pBIN 19 (Bevan, Nucl. Acids Res. (1984) behind a double enhanced 35S promoter ahead of a NOS 3′ transcription terminator and then transformed into E. coli DH5 alpha competent cells. DNA recovered from the E. coli is used to transform Agrobacterium tumefaciens LBA4404, and transformed bacteria are selected on media contain rifampicin and kanamycin. Tobacco tissue is subjected to Agrobacterium-mediated transformation using methods well described in the art or as described herein. For example, a master plate of Agrobacterium tumefaciens containing the HPPD expressing the binary vector is used to inoculate 10 ml LB (L broth) containing 100 mg/l Rifampicin plus 50 mg/l Kanamycin using a single bacterial colony. This is incubated overnight at 28° C. shaking at 200 rpm. This entire overnight culture is used to inoculate a 50 ml volume of LB containing the same antibiotics. Again this is cultured overnight at 28° C. shaking at 200 rpm. The Agrobacterium cells are pelleted by centrifuging at 3000 rpm for 15 minutes and then resuspended in MS (Murashige and Skoog) medium containing 30 g/l sucrose, pH 5.9 to an OD (600 nM)=0.6. This suspension is dispensed in 25 ml aliquots into petri dishes.
Once rooted, plantlets are transferred from agar and potted into 50% peat, 50% John Innes Soil No. 3 or, for example, MetroMix® 380 soil (Sun Gro Horticulture, Bellevue, WA) with slow-release fertilizer in 3 inch round or 4 inch square pots and left regularly watered to establish for 8-12d in the glass house. Glass house conditions are about 24-27° C. day; 18-21° C. night and approximately a 14h (or longer in UK summer) photoperiod. Humidity is adjusted to ˜65% and light levels used are up to 2000 umol/m^2 at bench level. Once new tissue emerged and plants reach the 2-4 leaf stage, some of the clones from each event are sprayed with an HPPD inhibitor of interest selected from the herbicides listed in reference to Example 1. […] For example Callisto® is mixed in water with 0.2-0.25% X-77 surfactant and sprayed from a boom on a suitable track sprayer moving at 2 mph in a DeVries spray chamber (Hollandale, MN) with the nozzle about 2 inches from the plant tops.
Plants are assessed for damage and scored at, for example, 7 and 14 days after treatment (DAT). About 20-30 TO events are produced for a number of HPPD variant genes.
Plants of events showing the least damage are grown to flowering, then bagged and allowed to self. […] Single copy events amongst the Ti plant lines are identified by their 3:1 segregation ratio (with respect to kanamycin and/or herbicide) and by quantitative RT-PCR. Seed from the thus selected Ti tobacco (var. Samsun) lines are sown in 3 inch diameter pots containing 50% peat and 50% John Innes Soil No. 3. After growth to the 3 leaf stage, plants are sprayed as described above in order to test for herbicide tolerance relative to like-treated non-transgenic tobacco plants, and also in comparison with like-treated Ti plants expressing the base HPPD SEQ IDs 122-125. HPPD expression levels were monitored by Western analysis. […]

In test [3] the test system is transgenic tobacco plants expressing mutant HPPD SEQ ID NO: 9. Briefly: spray test, herbicidal damage scoring. Format: in vivo. As to the method:
as §1
as §2, with “The Agrobacterium cells are pelleted by centrifuging at 3000 rpm for 15 minutes and then resuspended in MS (Murashige and Skoog) medium containing 30 g/l sucrose, pH 5.9 to an OD (600 nM)=0.6. This suspension is dispensed in 25 ml aliquots into petri dishes.” left out
Plants are assessed for damage and scored at, for example, 7 and 14 days after treatment (DAT). […]
Plants of events showing the least damage are grown to flowering, then bagged and allowed to self. […] Single copy events amongst the Ti plant lines are identified by their 3:1 segregation ratio (with respect to kanamycin and/or herbicide) and by quantitative RT-PCR. […] HPPD expression levels were monitored by Western analysis. […]

Sequence of HPPD variant AVESA V307 (SEQ ID NO: 35) (A0ACD5V6K6 entry or part of it R214G/V218I/V260A/P271N/A327R/I340E/L359M): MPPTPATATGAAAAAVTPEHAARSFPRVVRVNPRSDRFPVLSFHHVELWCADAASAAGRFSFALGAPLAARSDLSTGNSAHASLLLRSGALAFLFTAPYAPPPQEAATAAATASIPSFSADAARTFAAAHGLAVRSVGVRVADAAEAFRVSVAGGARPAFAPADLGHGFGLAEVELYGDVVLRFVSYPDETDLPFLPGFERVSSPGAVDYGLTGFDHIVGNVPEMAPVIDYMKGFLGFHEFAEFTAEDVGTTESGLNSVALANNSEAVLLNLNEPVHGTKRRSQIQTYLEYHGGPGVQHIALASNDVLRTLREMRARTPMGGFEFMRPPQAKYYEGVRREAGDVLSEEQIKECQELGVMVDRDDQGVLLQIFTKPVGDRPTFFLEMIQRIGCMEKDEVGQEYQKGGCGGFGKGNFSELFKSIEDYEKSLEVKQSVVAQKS

As for `COc1ccc(-n2nc(C)cc(C(=O)C3C(=O)CCCC3=O)c2=O)cc1OC` [Herbicide C, dioxopyritrione], in test [1] (AVESA V307, SEQ ID NO: 35, read-out: IC50), the IC50 is less than 0.19 µM. Further, the damage entry in test [2] (200 g/ha, SEQ ID 14 plants compared to plants expressing SEQ IDs 122, 124 or 125) is “reduced damage”; in test [2] (several lines expressing SEQ ID NO: 14, 100 g/ha (Table 3.1)), “less than 10%”. Besides, the stunting result in test [2] (FIG. 4, 300 ai/ha, SEQ ID NO: 14 plants compared to plants expressing the wild-type HPPD (SEQ ID NO: 1)) is “significantly reduced stunting”. For the same compound, in test [2] (FIG. 4, 300 ai/ha, some multi-copy events expressing SEQ ID NO: 14), the chlorosis entry was “Almost no chlorosis”. The “chlorosis (yellowing of leaf tissue)” value in test [2] (FIG. 5, 50 g/ha, SEQ ID NO: 14 plants compared to plants expressing SEQ ID NO: 122 or SEQ ID NO: 17) is “significantly reduced chlorosis”. Also, in test [2] (many lines expressing SEQ ID NO: 14, 100 g/ha (Table 3.1)), the “tolerance in comparison to SEQ ID NO: 122” value is recorded as “significantly improved tolerance”. Also, the tolerance result in test [3] (SEQ ID 9 plants, 100 g/ha (Table 3.4)) was “display tolerance”. In addition, in test [3] (SEQ ID 9 plants, 200 g/ha (Table 3.4)), the “tolerance compared to plants expressing SEQ ID 125” value was “higher tolerance”.
With `Cn1nnnc1NC(=O)c1ccc(C(F)(F)F)nc1-n1cncn1` [Herbicide D, N-(1-methyltetrazol-5-yl)-2-(1,2,4-triazol-1-yl)-6-(trifluoromethyl)pyridine-3-carboxamide], in test [1], inhibition was half-maximal at 262 µM (IC50). Moreover, the damage result in test [3] (2000 g/ha, SEQ ID 9 plants compared to plants expressing SEQ IDs 122, 124 or 125) is “significantly reduced damage”.
